Measurements published in patent publication US8062996B2, “Plant glutamate receptors” (priority 1995, dated 2011).

Assays:
Arabidopsis [1] = assay: Plant growth assay: root length on vertical tissue culture plates; assay type: in vivo
Method: Arabidopsis seeds were grown on MS+3% sucrose vertical tissue culture plates containing various amounts of kainate (FIG. 11A) or DNQX (FIG. 11B), with (white bars) or without (black bars) glutamate supplementation. The effects of each drug on plant growth were assayed by measuring root length after two week. The results were discussed in text.
The following assay may be utilized in order to screen drugs for their effects on plant growth mediated by the GluR. Arabidopsis seedlings expressing or overexpressing the GluR are treated with the potential agonist or antagonist. In this plant growth assay, Arabidopsis seeds are plated on tissue culture plates in MS Medium (Murashige and Skoog Salt Mixture-plant basic medium available from Gibco (BRL)). A dose-response curve is determined using various concentrations of the potential agonist or antagonist added to the medium. The plants are grown vertically in a growth chamber at 22° C. with a 16 hour light/8 hour dark cycle for two weeks. The effects of each herbicide on plant growth is assessed by measuring root length on vertical tissue culture plates.
A dose-response curve using various concentrations of KA or DNQX was performed and the effects of each drug on plant growth was determined by measuring root length on vertical tissue culture plates (see FIG. 11).

ASN1 mRNA = ASN1 mRNA levels by Northern blot (relief of sucrose repression); assay type: in vivo, Arabidopsis; conditions: for relief of sucrose repression of ASN1 mRNA: 3% sucrose, dark 2 d; for induction of ASN1 mRNA: average of two Northern blot experiments, densitometry
Method: FIG. 12A. Arabidopsis seeds were grown on plates containing MS medium plates 3% (w/v) Suc under 16-h light/8-h dark cycle for 2-3 weeks. The plants were then transferred to media described below and grown in complete darkness for 2d. All samples containing 3% sucrose except for lane 2. MS was supplemented with kainate (lane 4:0.3 mM and lane 5: 0.03 mM), 0.05% (w/v) glutamate (lanes 6 and 7), and 10 μM DNQX (lanes 7 and 8). The expression of ASN1 and a control gene were detected by northern analyses on duplicate blots (under high-stringency conditions in 50% [v/v] formamide-solution), 20 μg of total RNA was used for each lane.
FIG. 12B. Quantitation of the Northern blot results in (A) by densitometry scan.
FIG. 12C. Average folds of induction in two Northern blot experiments.
The ability of a iGluR agonist to mimic the glutamate-stimulated expression of nitrogen assimilatory genes in Arabidopsis was tested using low concentrations of agonist KA and monitoring ASN1 mRNA levels as a measure of gene induction by KA.
ASN1 mRNA accumulates to high levels specifically in dark-treated plants (FIG. 12A, lane 2), and is repressed by light (FIG. 12A, lane 1) or sucrose (FIG. 12A, lane 3). […] ASN1 mRNA levels are determined by Northern blot analysis.

Arabidopsis [2] = assay: Germination of Arabidopsis in the dark; assay type: in vivo
Description: FIG. 23. Effects of kainate of germination of Arabidopsis in the dark.
Kainate inhibition of germination in the dark is reversed by glutamate. Plants germinated in the dark on “normal” MS media (MS) as a positive control. Kainate, the iGluR agonist, causes a specific inhibition of germination of plants grown in MS media containing KA. The inhibition of germination by KA is reversed by the addition of glutamate to the media (MS+KA+Glu) (FIG. 23). Germination involves a light signal. Dark-grown seedlings are sown in the light and transferred to the dark. […] High doses of KA an agonist of iGluR in animals functions as a neurotoxin.
The effects of kainate on germination of Arabidopsis in the dark was determined.

[3] = system: Arabidopsis wild-type seedlings; assay: Survival of wild-type seedlings on high-dose kainate; assay type: in vivo; conditions: 12 mM kainate
Method: FIGS. 28A and 28B. Selection of Arabidopsis mutants resistant to the iGluR agonist Kainate. […] This is not unexpected as high doses of the iGluR agonist kainate function as a neurotoxin in animals. Arabidopsis mutants with putative defects in the KA binding site of iGluR were selected for the ability to grow in the presence of 12 mM kainate. […] Note the one KA-resistant plant is enlarged in FIG. 28B.
Arabidopsis mutants resistant to the iGluR agonist Kainate were selected. […] This is not unexpected as high doses of the iGluR agonist kainate function as a neurotoxin in animals. Arabidopsis mutants with putative defects in the KA binding site of iGluR were selected by selecting for mutants able to grow in the presence of 12 mM kainate. The ems mutagenized Arabidopsis M2 seedlings were sown on 12 mM kainate. Note the one KA-resistant plant is enlarged in FIG. 28B.

With `C=C(C)[C@H]1CN[C@H](C(=O)O)[C@H]1CC(=O)O` [KA, kainic acid] the root growth (Arabidopsis [1]; high concentrations of agonist or antagonist, without glutamate) was “reduction in root growth”, the “effect of high doses on root growth with glutamate supplementation” value (Arabidopsis [1]; high doses plus glutamate) was “at least partially reversed by glutamate supplementation” and the “effect on plant growth (root length)” value (Arabidopsis [1]; low concentrations, 0 to 0.3 mM KA, two weeks) was “no adverse effects on plant growth”. The “relief of sucrose repression of ASN1 mRNA” value (ASN1 mRNA; KA 300 uM and 30 μM) was “able to relieve the sucrose repression of ASN1 mRNA”, the “induction of ASN1 mRNA” value (ASN1 mRNA) was “roughly 2 fold” and the “germination of dark-grown seedlings” value (Arabidopsis [2]; kainate 200-400 uM) was “significant inhibition of germination”. For the same compound, the “inhibition of germination with glutamate supplementation” value (Arabidopsis [2]; kainate plus glutamate in growth media) was “specifically reversed by the supplementation of glutamate” and the “lethality to wild-type seedlings” value [3] was “kill wild-type seedlings”.
For `N[C@@H](CCC(=O)O)C(=O)O` [glutamate], the “relief of sucrose repression of ASN1 mRNA” value (ASN1 mRNA; 0.05% (w/v) glutamate) was “able to partially relieve this sucrose repression” and the “induction of ASN1 mRNA” value (ASN1 mRNA) was “roughly 2 fold”.
